Measurements published in patent US10280159B2 (AbbVie Deutschland GmbH & Co. KG, priority 2015, dated 2019).

Tests used:
Assay type in all cases: cell-based
[1] = target: T1, human S1PR1 (Homo sapiens, UniProt P21453); test: Intracellular Ca2+ release (FLIPR) agonist potency, S1P1; details: recombinant CHO-K1 cells expressing human S1PR1, aequorin, Gq/i5; Calcium 5 FLIPR; read-out: S1P1 EC50
T1 construct: host or cells: CHO-K1
Method in brief: (§1)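 Agonist potency from intracellular Ca²⁺ release measured by FLIPR, with EC50 fitted after normalization to phospho-fingolimod curves. Recombinant CHO-K1 lines co-expressing the respective human S1P receptor, aequorin and Gq/i5.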

[2] = target: T2, human S1PR5 (Homo sapiens, UniProt Q9H228); test: Intracellular Ca2+ release (FLIPR) agonist potency, S1P5; details: recombinant CHO-K1 cells expressing human S1PR5, aequorin, Gq/i5; Calcium 5 FLIPR; read-out: S1P5 EC50 range
T2 construct: host or cells: CHO-K1
T2 sequence (Q9H228 whole entry): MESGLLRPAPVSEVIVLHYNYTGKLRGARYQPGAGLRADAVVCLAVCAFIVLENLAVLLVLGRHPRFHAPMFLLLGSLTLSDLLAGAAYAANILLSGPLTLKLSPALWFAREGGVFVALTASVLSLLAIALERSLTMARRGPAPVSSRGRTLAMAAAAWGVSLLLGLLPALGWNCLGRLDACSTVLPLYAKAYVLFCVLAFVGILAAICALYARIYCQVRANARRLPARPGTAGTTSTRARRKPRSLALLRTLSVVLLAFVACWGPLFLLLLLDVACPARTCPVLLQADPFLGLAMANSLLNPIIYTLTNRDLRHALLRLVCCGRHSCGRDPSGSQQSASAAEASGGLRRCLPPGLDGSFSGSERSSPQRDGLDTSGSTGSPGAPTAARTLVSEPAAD
Method in brief: as §1

[3] = target: T3, human S1PR4 (Homo sapiens, UniProt O95977); test: Intracellular Ca2+ release (FLIPR) agonist potency, S1P4; details: recombinant CHO-K1 cells expressing human S1PR4, aequorin, Gq/i5; Calcium 5 FLIPR; read-out: S1P4 EC50
T3 construct: host or cells: CHO-K1
T3 sequence (O95977 1-384): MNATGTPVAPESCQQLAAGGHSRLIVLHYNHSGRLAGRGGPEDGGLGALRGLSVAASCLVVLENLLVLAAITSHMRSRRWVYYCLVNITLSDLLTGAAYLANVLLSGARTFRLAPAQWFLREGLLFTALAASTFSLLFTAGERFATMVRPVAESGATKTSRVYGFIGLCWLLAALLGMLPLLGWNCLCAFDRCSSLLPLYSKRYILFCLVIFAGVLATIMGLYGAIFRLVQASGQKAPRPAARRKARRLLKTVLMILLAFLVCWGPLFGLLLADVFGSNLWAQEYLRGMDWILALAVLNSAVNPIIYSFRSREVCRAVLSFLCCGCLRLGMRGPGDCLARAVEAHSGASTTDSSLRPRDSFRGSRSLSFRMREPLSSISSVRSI
Method in brief: as §1

[4] = target: T4, human S1PR3 (Homo sapiens, UniProt Q99500); test: Intracellular Ca2+ release (FLIPR) agonist potency, S1P3; details: recombinant CHO-K1 cells expressing human S1PR3, aequorin, Gq/i5; Calcium 5 FLIPR; read-out: S1P3 EC50
T4 construct: host or cells: CHO-K1
T4 sequence (Q99500 whole entry): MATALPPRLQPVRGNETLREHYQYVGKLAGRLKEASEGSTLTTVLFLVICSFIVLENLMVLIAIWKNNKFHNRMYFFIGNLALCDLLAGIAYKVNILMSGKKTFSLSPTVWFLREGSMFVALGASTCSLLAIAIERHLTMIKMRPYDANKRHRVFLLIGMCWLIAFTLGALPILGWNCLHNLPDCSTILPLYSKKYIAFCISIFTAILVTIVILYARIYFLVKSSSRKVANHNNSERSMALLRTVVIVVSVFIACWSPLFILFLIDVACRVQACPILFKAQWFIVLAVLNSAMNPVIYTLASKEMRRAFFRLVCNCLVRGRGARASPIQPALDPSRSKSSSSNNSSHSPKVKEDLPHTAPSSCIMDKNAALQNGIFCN
Description: Agonistic activity was measured using the method described below.
Intracellular Ca^2+ Release
Agonist potency and intrinsic activity was assessed by measurement of intracellular Ca^2+ release. Recombinant CHO-K1 cells (Euroscreen, Brussels, Belgium) expressing human S1PR5, S1PR1, S1PR3 or S1PR4 receptors, aequorin, and GTP binding protein Gq/i5 were cultured using a medium containing nutrient mixture F-12 Ham (Sigma-Aldrich) with 10% FBS, and 100 μg/mL gentamicin and equilibrated at 5% CO2.
Phospho-fingolimod was used as positive control. Antagonists were pre-incubated for 10 min with cells before addition of the agonist (phospho-fingolimod at EC80). Measurements were performed using a fluorometric imaging plate reader FLIPR®tetra (Molecular Devices). Agonist at the human S1P receptors were characterized by deducing EC50 (potency) values from a nonlinear fit to the measured fluorescence raw data after normalization to the reference agonist (phospho-fingolimod) curve.

T1 sequence (P21453 whole entry): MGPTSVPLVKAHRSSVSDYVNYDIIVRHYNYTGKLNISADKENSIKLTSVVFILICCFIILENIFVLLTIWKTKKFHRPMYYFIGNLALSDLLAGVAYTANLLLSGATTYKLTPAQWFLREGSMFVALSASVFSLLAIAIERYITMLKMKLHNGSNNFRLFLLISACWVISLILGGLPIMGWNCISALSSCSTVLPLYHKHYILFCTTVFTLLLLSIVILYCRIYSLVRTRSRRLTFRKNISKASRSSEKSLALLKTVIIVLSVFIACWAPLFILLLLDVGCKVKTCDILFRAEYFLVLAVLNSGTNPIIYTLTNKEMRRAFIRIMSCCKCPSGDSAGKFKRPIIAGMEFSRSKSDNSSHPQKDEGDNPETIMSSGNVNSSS

EC50 [1] [µM]	EC50 [2] [µM]	EC50 [3] [µM]	EC50 [4] [µM]	Structure (SMILES)
< 1	< 0.01	< 1	> 1	O=C(O)C1CCN(C2CCc3cc(OCc4c(Cl)cccc4Cl)ccc3C2)CC1 (centres unmarked) [Compound 31, 1-(6-((2,6-dichlorobenzyl)oxy)-1,2,3,4-tetrahydronaphthalen-2-yl)piperidine-4-carboxylic acid]
> 1	< 0.01	< 1	> 1	CCc1cccc(Cl)c1COc1ccc2c(c1)OCC(NCC(=O)O)C2 (centres unmarked) [Compound 34, 2-((7-((2-chloro-6-ethylbenzyl)oxy)chroman-3-yl)amino)acetic acid]
> 1	0.1 to 1	< 1	> 1	O=C(O)CNC1COc2cc(OCc3c(Cl)cccc3Cl)ccc2C1 (centres unmarked) [Compound 35, 2-((7-((2,6-dichlorobenzyl)oxy)chroman-3-yl)amino)acetic acid]
> 1	< 0.01	< 1	> 1	O=C(O)C1CN(C2COc3cc(C#Cc4cc(F)ccc4F)ccc3C2)C1 (centres unmarked) [Compound 38, 1-(7-((2,5-difluorophenyl)ethynyl)chroman-3-yl)azetidine-3-carboxylic acid]
> 1	0.01 to 0.1	> 1	> 1	O=C(O)C1CN(C2COc3cc(C#Cc4ccccc4C(F)(F)F)ccc3C2)C1 (centres unmarked) [Compound 41, 1-(7-((2-(trifluoromethyl)phenyl)ethynyl)chroman-3-yl)azetidine-3-carboxylic acid]
> 1	0.01 to 0.1	< 1	> 1	O=C(O)C1CN(C2COc3cc(C#Cc4c(F)cccc4F)ccc3C2)C1 (centres unmarked) [Compound 47, 1-(7-((2,6-difluorophenyl)ethynyl)chroman-3-yl)azetidine-3-carboxylic acid]
> 1	0.01 to 0.1	> 1	> 1	O=C(O)C12CC(NC3COc4cc(OCc5c(Cl)cccc5Cl)ccc4C3)(C1)C2 (centres unmarked) [Compound 48, 3-((7-((2,6-dichlorobenzyl)oxy)chroman-3-yl)amino)-bicyclo[1.1.1]pentane-1-carboxylic acid]
> 1	< 0.01	> 1	> 1	O=C(O)C1CN(C2COc3cc(-c4ccc(OCc5ccc(Cl)cc5)cc4)ccc3C2)C1 (centres unmarked) [Compound 54, 1-(7-(4-((4-chlorobenzyl)oxy)phenyl)chroman-3-yl)azetidine-3-carboxylic acid]
< 1	< 0.01	> 1	> 1	O=C(O)C1CN(C2COc3cc(-c4ccc(OCC5CCCCC5)cc4)ccc3C2)C1 (centres unmarked) [Compound 55, 1-(7-(4-(cyclohexylmethoxy)phenyl)chroman-3-yl)azetidine-3-carboxylic acid]
> 1	0.01 to 0.1	< 1	> 1	O=C(O)C1CN(C2COc3cc(OCc4c(F)cccc4C(F)(F)F)ccc3C2)C1 (centres unmarked) [Compound 66, 1-(7-((2-fluoro-6-(trifluoromethyl)benzyl)oxy)chroman-3-yl)azetidine-3-carboxylic acid]
> 1	< 0.01	< 1	> 1	O=C(O)C1CN(C2COc3cc(OCc4c(F)cccc4C4CC4)ccc3C2)C1 (centres unmarked) [Compound 67, 1-(7-((2-cyclopropyl-6-fluorobenzyl)oxy)chroman-3-yl)azetidine-3-carboxylic acid]
> 1	0.1 to 1	> 1	> 1	O=C(O)C1CN(C2COc3cc(OCc4ccc(Cl)cc4Cl)ccc3C2)C1 (centres unmarked) [Compound 68, 1-(7-((2,4-dichlorobenzyl)oxy)chroman-3-yl)azetidine-3-carboxylic acid]
> 1	0.01 to 0.1	> 1	> 1	O=C(O)C1CN(C2COc3cc(OCCc4c(Cl)cccc4Cl)ccc3C2)C1 (centres unmarked) [Compound 69, 1-(7-(2,6-dichlorophenethoxy)chroman-3-yl)azetidine-3-carboxylic acid]

The next lines start with the molecule.

Structure (SMILES)	EC50 [1] [µM]	EC50 [2] [µM]	EC50 [3] [µM]	EC50 [4] [µM]
O=C(O)C1CN(C2COc3cc(OCc4c(Cl)cccc4C4CC4)ccc3C2)C1 (centres unmarked) [Compound 25, 1-(7-((2-chloro-6-cyclopropylbenzyl)oxy)chroman-3-yl)azetidine-3-carboxylic acid]	> 1	< 0.01	< 1	> 1
O=C(O)C1CN(C2COc3cc(C#Cc4cc(F)cc(F)c4)ccc3C2)C1 (centres unmarked) [Compound 27, 1-(7-((3,5-difluorophenyl)ethynyl)chroman-3-yl)azetidine-3-carboxylic acid]	> 1	< 0.01	< 1	> 1
O=C(O)CNC1CCc2cc(C#Cc3cc(F)cc(F)c3)ccc2C1 (centres unmarked) [Compound 28, 2-((6-((3,5-difluorophenyl)ethynyl)-1,2,3,4-tetrahydronaphthalen-2-yl)amino)acetic acid]	> 1	< 0.01	< 1	> 1
O=C(O)CNC1CCc2cc(C#Cc3c(Cl)cccc3Cl)ccc2C1 (centres unmarked) [Compound 29, 2-((6-((2,6-dichlorophenyl)ethynyl)-1,2,3,4-tetrahydronaphthalen-2-yl)amino)acetic acid]	> 1	< 0.01	< 1	> 1
O=C(O)CNC1CCc2cc(C#CC3CCCCC3)ccc2C1 (centres unmarked) [Compound 30, 2-((6-(cyclohexylethynyl)-1,2,3,4-tetrahydronaphthalen-2-yl)amino)acetic acid]	> 1	< 0.01	< 1	> 1
O=C(O)C12CC(NC3CCc4cc(OCc5c(Cl)cccc5Cl)ccc4C3)(C1)C2 (centres unmarked) [Compound 32, 3-((6-((2,6-dichlorobenzyl)oxy)-1,2,3,4-tetrahydronaphthalen-2-yl)amino)bicyclo[1.1.1]pentane-1-carboxylic acid]	> 1	< 0.01	< 1	> 1
CC(NC1CCc2cc(OCc3c(Cl)cccc3Cl)ccc2C1)C(=O)O (centres unmarked) [Compound 33, 2-((6-((2,6-dichlorobenzyl)oxy)-1,2,3,4-tetrahydronaphthalen-2-yl)amino)propanoic acid]	> 1	< 0.01	< 1	> 1
O=C(O)C1CN(C2COc3cc(C#Cc4cccc(Cl)c4)ccc3C2)C1 (centres unmarked) [Compound 40, 1-(7-((3-chlorophenyl)ethynyl)chroman-3-yl)azetidine-3-carboxylic acid]	> 1	0.01 to 0.1	< 1	> 1
O=C(O)C1CN(C2COc3cc(C#Cc4ccccc4OC(F)F)ccc3C2)C1 (centres unmarked) [Compound 42, 1-(7-((2-(difluoromethoxy)phenyl)ethynyl)chroman-3-yl)azetidine-3-carboxylic acid]	> 1	0.01 to 0.1	> 1	> 1
O=C(O)C1CN(C2COc3cc(C#Cc4c(Cl)cccc4Cl)ccc3C2)C1 (centres unmarked) [Compound 44, 1-(7-((2,6-dichlorophenyl)ethynyl)chroman-3-yl)azetidine-3-carboxylic acid]	> 1	0.01 to 0.1	> 1	> 1
O=C(O)C1CN(C2COc3cc(-c4ccc(OCc5cccc(F)c5F)cc4)ccc3C2)C1 (centres unmarked) [Compound 56, 1-(7-(4-((2,3-difluorobenzyl)oxy)phenyl)chroman-3-yl)azetidine-3-carboxylic acid]	< 1	0.01 to 0.1	> 1	> 1
CCc1ccccc1COc1ccc2c(c1)OCC(N1CC(C(=O)O)C1)C2 (centres unmarked) [Compound 64, 1-(7-((2-ethylbenzyl)oxy)chroman-3-yl)azetidine-3-carboxylic acid]	> 1	0.01 to 0.1	< 1	> 1
CCc1cccc(F)c1COc1ccc2c(c1)OCC(N1CC(C(=O)O)C1)C2 (centres unmarked) [Compound 65, 1-(7-((2-ethyl-6-fluorobenzyl)oxy)chroman-3-yl)azetidine-3-carboxylic acid]	> 1	< 0.01	< 1	> 1
